Measurements from patent US4734493A, “Novel anthracycline antibiotics” (Sanraku, Incorporated, priority 1985, dated 1988).
In brackets after ≈: the same amount, converted by molar mass. Like-named read-outs stand apart in the source and are kept apart here.

Tests used:
[1] = tested on: DNA synthesis in mouse leukemia L1210 culture cell; assay: Nucleic acid synthesis inhibiting action: DNA synthesis (14C-thymidine intake) in L1210 culture cells; type: cell-based; settings: 1 h, 60 minutes, 10% bovine serum, 37° C., read-out: 50% Inhibiting Concentration (IC50), Inhibition of DNA Synthesis
Procedure: (§1) For example, […] of L1210 cells were inoculated, on RPM 11640 medium (Rosewellberg Research Institute) containing 20% bovine serum and the compound of the present invention was supplemented in a concentration of 0.0005 to 0.25 μg/ml followed by culturing at 37° C. in a carbon dioxide gas incubator. A 50% proliferation inhibiting concentration was determined as compared to control. Further the aforesaid L1210 culture cells were suspended in 8×10^5 cells/ml in RPM 11640 medium containing 10% bovine serum. After culturing at 37° C. for 1 to 2 hours in a carbon dioxide gas incubator, the compound of the present invention was supplemented in various concentrations. Fifteen minutes after, ^14 C-uridine (0.05 μCi/ml) or ^14 C-thymidine (0.05 μCi/ml) was added to the system followed by culturing at 37° C. for 60 minutes. To the reaction mixture was added chilled 10% trichloroacetic acid to discontinue the reaction. At the same time, insoluble matters were precipitated, further washed twice with chilled 5% trichloroacetic acid and then dissolved in formic acid to provide for measurement of the radioactivity. A 50% intake inhibiting concentration was determined from a rate of intake of the radioactivity in the control group added with no compound.

[2] = tested on: mouse leukemia L1210 culture cell; assay: Proliferation inhibiting action against mouse leukemia L1210 culture cells; type: cell-based
Procedure: as §1

murine L1210 leukemia = assay: In vivo antitumor activity against murine L1210 leukemia in CDF1 mice
Procedure: The therapeutic effect of obelmycins were studied on CDF1 mice bearing L1210 leukemia, From 24 hours after 1×10^5 L1210 cells/animal were intraperitoneally transplanted to CDF1 mice, Obelmycins were intraperitoneally given everyday for 10 days. The prolongation of the survival time was calculated relative to control animals receiving physiological saline as 100.
Inoculation: 1×10^5 cells/mouse (ip)
Treatment: day 1 to 10, daily (ip)

[3] = tested on: RNA synthesis in mouse leukemia L1210 culture cell; assay: Nucleic acid synthesis inhibiting action: RNA synthesis (14C-uridine intake) in L1210 culture cells; type: cell-based; settings: 1 h, 60 minutes, 10% bovine serum, 37° C., read-out: 50% Inhibiting Concentration (IC50), Inhibition of RNA Synthesis
Procedure: as §1

[4] = L1210, read-out: 50% Inhibiting Concentration (IC50), Inhibition of Cell Proliferation
[5] = dose 3.1 μg/kg/day ip, daily day 1 to 10, CDF1 mice n=6, survival time relative to saline control as 100
[6] = L1210 cells, RPM 11640 medium with 20% bovine serum, 37° C., read-out: 50% Inhibiting Concentration (IC50), Inhibition of Cell Proliferation

Row | Compound | IC50 [1] | IC50 [2, 4] | Antitumor effect T C (%) (murine L1210 leukemia; [5]) | IC50 [3] | IC50 [2, 6] | Antitumor effect T C (%) (murine L1210 leukemia; ip, 0.1 mg/kg, 24 h) | Antitumor effect T C (%) (murine L1210 leukemia; dose 12.5 μg/kg/day ip, daily day 1 to 10, CDF1 mice n=6, survival time relative to saline control as 100) | Antitumor effect T C (%) (murine L1210 leukemia; dose 200 μg/kg/day ip, daily day 1 to 10, CDF1 mice n=6, survival time relative to saline control as 100) | Antitumor effect T C (%) (murine L1210 leukemia; ip, 0.025 mg/kg, 24 h)
1 | CCC1(O)CC(OC2CC(N(C)C)C(OC3CCC(OC4CCC(O)C(C)O4)C(C)O3)C(C)O2)c2c(O)c3c(c(O)c2C1OC1CC(N(C)C)C(OC2CCC(OC4CCC(O)C(C)O4)C(C)O2)C(C)O1)C(=O)c1c(O)ccc(O)c1C3=O (stereo not shown) [Obelmycin B] | 0.26 µg/mL (≈ 0.222 µM) | 0.0009 µg/mL (≈ 0.000767 µM) | 150% | 0.025 µg/mL (≈ 0.0213 µM) | – | – | – | – | –
2 | CCC1(O)CC(OC2CC(N(C)C)C(O)C(C)O2)c2c(O)c3c(c(O)c2C1O)C(=O)c1c(O)ccc(O)c1C3=O (stereo not shown) [Obelmycin A] | 0.58 µg/mL (≈ 1.04 µM) | – | – | 0.14 µg/mL (≈ 0.25 µM) | 0.001 µg/mL (≈ 0.00179 µM) | 185% | – | – | –
3 | CCC1(O)CC(OC2CC(N(C)C)C(OC3CC(O)C(OC4CCC(O)C(C)O4)C(C)O3)C(C)O2)c2c(O)c3c(c(O)c2C1OC1CC(N(C)C)C(OC2CCC(OC4CCC(O)C(C)O4)C(C)O2)C(C)O1)C(=O)c1c(O)ccc(O)c1C3=O (stereo not shown) [Obelmycin C] | 0.38 µg/mL (≈ 0.32 µM) | 0.001 µg/mL (≈ 0.000841 µM) | 145% | 0.043 µg/mL (≈ 0.0362 µM) | – | – | – | – | –
4 | CCC1(O)CCc2c(O)c3c(c(O)c2C1OC1CC(N(C)C)C(OC2CCC(OC4CCC(O)C(C)O4)C(C)O2)C(C)O1)C(=O)c1c(O)ccc(O)c1C3=O (stereo not shown) [Obelmycin E] | 1.3 µg/mL (≈ 1.68 µM) | 0.062 µg/mL (≈ 0.0803 µM) | – | 0.78 µg/mL (≈ 1.01 µM) | – | – | 135% | – | –
5 | CCC1(O)CCc2c(O)c3c(c(O)c2C1OC1CC(N(C)C)C(O)C(C)O1)C(=O)c1c(O)ccc(O)c1C3=O (stereo not shown) [Obelmycin G] | 1.5 µg/mL (≈ 2.76 µM) | – | – | 1.1 µg/mL (≈ 2.02 µM) | 0.2 µg/mL (≈ 0.368 µM) | – | – | 145% | –
6 | CCC1(O)CC(OC2CC(N(C)C)C(OC3CC(O)C(OC4CCC(O)C(C)O4)C(C)O3)C(C)O2)c2c(O)c3c(c(O)c2C1OC1CC(N(C)C)C(OC2CC(O)C(OC4CCC(O)C(C)O4)C(C)O2)C(C)O1)C(=O)c1c(O)ccc(O)c1C3=O (stereo not shown) [Obelmycin D] | 1.2 µg/mL (≈ 0.996 µM) | 0.004 µg/mL (≈ 0.00332 µM) | 140% | 0.175 µg/mL (≈ 0.145 µM) | – | – | – | – | –
7 | CCC1(O)CCc2c(O)c3c(c(O)c2C1OC1CC(N(C)C)C(OC2CC(O)C(OC4CCC(O)C(C)O4)C(C)O2)C(C)O1)C(=O)c1c(O)ccc(O)c1C3=O (stereo not shown) [Obelmycin F] | 1.43 µg/mL (≈ 1.82 µM) | – | – | 0.6 µg/mL (≈ 0.762 µM) | 0.092 µg/mL (≈ 0.117 µM) | – | – | – | 130%
